Source: PMC8536644, “Enigmatic mechanism of the N-vinylpyrrolidone hepatocarcinogenicity in the rat” (Archives of Toxicology, 2021)
Where two headings read alike, the source gives them in different places. Marks after values point to notes of the source that are not given here.

Legend:
CYP1A = assay: EROD assay, lung microsomes of NVP-treated rats; assay type: in vivo, rat; details: after NVP treatment; below the LOD
Method: (§1) The alkoxyresorufin dealkylase (AROD) assays were based on the method by Burke et al. ([1994]).
The frozen livers and lungs of the NVP-treated male Wistar rats were thawed and washed with isotonic (0.9%) NaCl solution. The tissues were ice-cooled homogenized (1 g tissue: 3 mL 0.25 M saccharose in 1 mM disodium EDTA, pH 7.4) and centrifuged (9000 g, 15 min, 4 °C). The supernatant fraction was centrifuged (100 000 g, 60 min, 4 °C). The resulting supernatant fraction was used for the palmitoyl-CoA-oxidase assay described further down. The pellet was taken up in 150 mM aqueous KCl solution, recentrifuged (100 000 g, 60 min, 4 °C) and the pellet taken up in 1 mL/g liver or 0.5 mL/g lung resuspension buffer (1 mM GSH, 1 mM disodium EDTA, 4 mM MgCl2, 0.1 M KH2PO4, pH 7.5 and 4% glycerol). […]
For determination of the enzyme activities in triplicates, 85 µL master mix (100 mM TrisHCl pH 7.5, 2 mM 5’AMP, 5 mM G-6-P, 10 U G-6-P-DH, 10 mM Dicumarol, 10 mM MgCl2, either 2 µM EROD or 10 µM PROD or 5 µM BROD) was added to 10 µL microsomal fraction (1 mg protein/mL). […] The activity was determined by measuring the increase of the fluorescence (excitation at 550 nm, emission at 585 nm) due to resorufin formation compared with resorufin standards, which had been prepared by dissolving tenfold concentrated solutions in DMSO, which were then diluted tenfold in 100 mM TrisHCl pH 7.5.

CYP2B = assay: PROD assay, liver microsomes (CAR marker); assay type: in vivo, rat; details: male rats
Method: as §1
(§2) The frozen livers and lungs of the NVP-treated male Wistar rats were thawed and washed with isotonic (0.9%) NaCl solution. The tissues were ice-cooled homogenized (1 g tissue: 3 mL 0.25 M saccharose in 1 mM disodium EDTA, pH 7.4) and centrifuged (9000 g, 15 min, 4 °C). The supernatant fraction was centrifuged (100 000 g, 60 min, 4 °C). The resulting supernatant fraction was used for the palmitoyl-CoA-oxidase assay described further down. The pellet was taken up in 150 mM aqueous KCl solution, recentrifuged (100 000 g, 60 min, 4 °C) and the pellet taken up in 1 mL/g liver or 0.5 mL/g lung resuspension buffer (1 mM GSH, 1 mM disodium EDTA, 4 mM MgCl2, 0.1 M KH2PO4, pH 7.5 and 4% glycerol). Aliquots were stored at − 80 °C.
(§3) For determination of the enzyme activities in triplicates, 85 µL master mix (100 mM TrisHCl pH 7.5, 2 mM 5’AMP, 5 mM G-6-P, 10 U G-6-P-DH, 10 mM Dicumarol, 10 mM MgCl2, either 2 µM EROD or 10 µM PROD or 5 µM BROD) was added to 10 µL microsomal fraction (1 mg protein/mL). The reaction was started by the addition of 5 µL 2 mM NADPH (dissolved in 100 mM TrisHCl pH 7.5) followed by incubation at 37 °C for 16 min. The activity was determined by measuring the increase of the fluorescence (excitation at 550 nm, emission at 585 nm) due to resorufin formation compared with resorufin standards, which had been prepared by dissolving tenfold concentrated solutions in DMSO, which were then diluted tenfold in 100 mM TrisHCl pH 7.5.

CYP 2B/3A = assay: BROD assay, lung microsomes; assay type: in vivo, rat; details: male rats
Method: as §1, §2, §3

rat liver [1] = assay: Liver histology, hematoxylin–eosin staining; assay type: in vivo
Method: HE staining was performed essentially according to Romeis ([2010]), specifically under the following conditions:
Parts of the frozen (− 80 °C) livers from rats treated with 0, 5, 10 or 20 ppm NVP were thawed in formalin (specifically 4% formaldehyde in sodium phosphate buffer pH 7) and left therein for fixation at least 7 days. Subsequently the livers were cut into approximately 4 mm-thick slices, which were dehydrated in increasingly concentrated ethanol (70–100%), washed in xylene and then transferred into fluid paraffin. The livers were put into kassettes with the parts which were foreseen for cutting toward the bottom, the kassettes filled with paraplast (melting point 58–62 °C) and the material left for hardening. From the embedded livers 3- to 6 µm-thick slices were cut by a rotation microtome, then stretched (in a water bath at 45 °C), transferred to a slide and dried overnight at 50 °C. Subsequently the slices were stained with HE and covered with Pertex. The slices were then microscopically evaluated. Structural changes were classified into severity grades 0, 1, 2 and 3.

rat liver [2] = assay: Liver histology, Oil Red O staining; assay type: in vivo; details: high dose group (20 ppm)
Method: ORO staining was performed essentially according to Lillie and Ashburn ([1943]), specifically under the following conditions:
Parts of the frozen (− 80 °C) livers from rats treated with 0, 5, 10 or 20 ppm NVP were soaked in tap water and then thoroughly frozen at − 40 °C. Subsequently they were cut at -10 to -15 °C into slices of 12–20 µm and stored in water until starting the staining procedure. The slices were then left for approximately 5 min in 60% isopropanol, subsequently stained for 10–12 min in ORO solution (5 g ORO dissolved in 1 L isopropanol, to this solution added 400 mL H2O, left at room temperature for 24 h and then filtered) and subsequently differentiated by immersing 2–3 times into 60% isopropanol. Afterwards they were left in water until they collected at the surface. Finally the slices were stained for 3 min in hematoxylin solution (1 g hematoxylin, 50 g KAl(SO4)2, 50 g chloral hydrate, 1 g citric acid/L H2O, then for maturation 0.2 g NaIO3/L). Subsequently they were left at least 10 min in water. Finally, the slices were transferred to microscope slides and covered with 40–60 °C warm Kaiser’s glycerol gelatin.

rat hepatocytes = assay: MTT assay in cultivated rat hepatocytes; assay type: cell-based; details: up to 1000 µM
Sprague–Dawley rats = details: cited from earlier work; for Larynx squamous carcinoma, incidence / Liver hepatocellular carcinoma, incidence / Nasal cavity adenocarcinoma, incidence / Nasal cavity adenoma, incidence: 24 months inhalation, 60 animals, ref Klimisch et al. (1997a)
[3] = test system: human lymphocyte cultures; set-up: method as in MAK [1994]; details: ref MAK [1994]; cited from earlier work
[4] = set-up: method as in ToxCast (comptox.epa.gov dashboard); details: ref ToxCast (comptox.epa.gov dashboard); cited from earlier work

SMILES: C=CN1CCCC1=O [NVP, N-vinylpyrrolidone]
- EROD activity in lung microsomes (CYP1A): < 1.6 pmol/min/mg protein
- Liver microsomal PROD activity (CYP2B; 5 ppm): 12.4 ± 1.9 pmol/min/mg protein
- Liver microsomal PROD activity (CYP2B; 10 ppm): 16.5 ± 4.3 pmol/min/mg protein
- Liver microsomal PROD activity (CYP2B; 20 ppm): 10.0 ± 2.8 pmol/min/mg protein
- BROD activity in lung microsomes (CYP 2B/3A; 5 ppm): 22.9 ± 11.0 pmol/min/mg protein
- BROD activity in lung microsomes (CYP 2B/3A; 10 ppm): 25.5 ± 19.8 pmol/min/mg protein
- BROD activity in lung microsomes (CYP 2B/3A; 20 ppm): 82.1 ± 76.8 pmol/min/mg protein
- Males without centrilobular hepatocellular fatty change (rat liver [1]; 5 ppm, three males examined): two of three
- Animals with low-grade (grade 1) centrilobular hepatocellular fatty change (rat liver [1]; 10 ppm, males): two of three
- Animals with grade 1 centrilobular hepatocellular fatty change (rat liver [1]; 20 ppm, females): one of three
- Animals with grade 2 centrilobular hepatocellular fatty change (rat liver [1]; 20 ppm, females): one
- Animals with high-grade (grade 3) centrilobular hepatocellular fatty change (rat liver [1]; 20 ppm, males): two of three
- Lipid-staining (oil red O) of centrilobular hepatocellular fatty change (rat liver [2]): positive for only one male and one female animal
- Cytotoxicity in MTT assay (rat hepatocytes): no cytotoxicity observed
- Larynx squamous carcinoma, incidence (Sprague–Dawley rats; female, 5 ppm): 0
- Liver hepatocellular carcinoma, incidence (Sprague–Dawley rats; female, 5 ppm): 3
- Nasal cavity adenocarcinoma, incidence (Sprague–Dawley rats; female, 5 ppm): 0
- Nasal cavity adenoma, incidence (Sprague–Dawley rats; female, 5 ppm): 2
- Larynx squamous carcinoma, incidence (Sprague–Dawley rats; female, 10 ppm): 0
- Liver hepatocellular carcinoma, incidence (Sprague–Dawley rats; female, 10 ppm): 6*
- Nasal cavity adenocarcinoma, incidence (Sprague–Dawley rats; female, 10 ppm): 0
- Nasal cavity adenoma, incidence (Sprague–Dawley rats; female, 10 ppm): 8**
- Larynx squamous carcinoma, incidence (Sprague–Dawley rats; female, 20 ppm): 4
- Liver hepatocellular carcinoma, incidence (Sprague–Dawley rats; female, 20 ppm): 26***
- Nasal cavity adenocarcinoma, incidence (Sprague–Dawley rats; female, 20 ppm): 4*
- Nasal cavity adenoma, incidence (Sprague–Dawley rats; female, 20 ppm): 14***
- Larynx squamous carcinoma, incidence (Sprague–Dawley rats; male, 5 ppm): 0
- Liver hepatocellular carcinoma, incidence (Sprague–Dawley rats; male, 5 ppm): 6*
- Nasal cavity adenocarcinoma, incidence (Sprague–Dawley rats; male, 5 ppm): 0
- Nasal cavity adenoma, incidence (Sprague–Dawley rats; male, 5 ppm): 9**
- Larynx squamous carcinoma, incidence (Sprague–Dawley rats; male, 10 ppm): 0
- Liver hepatocellular carcinoma, incidence (Sprague–Dawley rats; male, 10 ppm): 5*
- Nasal cavity adenocarcinoma, incidence (Sprague–Dawley rats; male, 10 ppm): 4*
- Nasal cavity adenoma, incidence (Sprague–Dawley rats; male, 10 ppm): 9***
- Larynx squamous carcinoma, incidence (Sprague–Dawley rats; male, 20 ppm): 4
- Liver hepatocellular carcinoma, incidence (Sprague–Dawley rats; male, 20 ppm): 17***
- Nasal cavity adenocarcinoma, incidence (Sprague–Dawley rats; male, 20 ppm): 6*
- Nasal cavity adenoma, incidence (Sprague–Dawley rats; male, 20 ppm): 11***
- Lowest tested dose at which hepatocellular carcinomas were observed (Sprague–Dawley rats; rat, inhalation, ref Klimisch et al. [1997a]): 5 ppm
- Chromosome aberration test result [3]: negative
- Active in vitro assays in ToxCast [4]: 10 out of 847
